Test systems include CCRF-CEM leukemia; MALME-3M melanoma; HL-60(TB) leukemia; SF-295 CNS; SN12C renal; DU-145 prostate; K-562 leukemia; TK-10 renal; LOX IMVI melanoma; CAKI-1 renal; U251 CNS.
Common to all, as to assay: NCI-60 cell line screen, 48 h

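Dose response: 5 concentrations. Exposure: 48 h. Format: 96-well plates. Endpoint: linear interpolation; highest concentration if not reached. TGI marks complete inhibition of growth.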

As for `CCc1cc2c(c3c1CCCC3=O)CC1(C2)Cc2cc(CC)c3c(c2C1)C(=O)CCC3`, the TGI in the experiment on CCRF-CEM leukemia, with MALME-3M melanoma, in the experiment on HL-60(TB) leukemia, with SF-295 CNS, in the experiment with SN12C renal and in the experiment with DU-145 prostate was above 100 µM each time. The TGI with K-562 leukemia, in the experiment with TK-10 renal, in the experiment on LOX IMVI melanoma, in the experiment with CAKI-1 renal and with U251 CNS was above 100 µM in each case.
With `c1ccc(Nc2nnc(CCCCCCCCc3nnc(Nc4ccccc4)o3)o2)cc1`, the TGI in the experiment on CCRF-CEM leukemia, in the experiment with MALME-3M melanoma, with HL-60(TB) leukemia, with SF-295 CNS, with SN12C renal and with DU-145 prostate was above 100 µM throughout. Also, the TGI in the experiment with K-562 leukemia, with TK-10 renal, with LOX IMVI melanoma, in the experiment with CAKI-1 renal and in the experiment with U251 CNS was above 100 µM in each case.
On to `O=C1C2CC[C@@H]3C(=O)C(Cl)(Cl)[C@@H]3CCC2C1(Cl)Cl` (stereo not given in full), for which the TGI in the experiment on CCRF-CEM leukemia is 63.8 µM; in the experiment on MALME-3M melanoma, above 100 µM; in the experiment with HL-60(TB) leukemia, 16.7 µM; with SF-295 CNS, above 100 µM; in the experiment with SN12C renal it was above 100 µM; with DU-145 prostate, above 100 µM. Moreover, the TGI in the experiment with K-562 leukemia, in the experiment on TK-10 renal, in the experiment on LOX IMVI melanoma, in the experiment on CAKI-1 renal and in the experiment with U251 CNS was above 100 µM throughout.
Turning to `CC(NNC(=O)c1ccncc1)c1ccc(Cl)cc1Cl` (stereo not given), the TGI in the experiment on CCRF-CEM leukemia, in the experiment on MALME-3M melanoma, with HL-60(TB) leukemia, with SF-295 CNS, in the experiment on SN12C renal and in the experiment with DU-145 prostate was above 100 µM throughout. Besides, the TGI in the experiment on K-562 leukemia, with TK-10 renal, in the experiment on LOX IMVI melanoma, in the experiment with CAKI-1 renal and in the experiment with U251 CNS was above 100 µM throughout.
`O=C1C=C/C(=C/[C@H]2SSC=C[C@]23C=CC(=O)C3)C1`: the TGI in the experiment with CCRF-CEM leukemia is 9.27 µM; in the experiment on MALME-3M melanoma, 41.5 µM; in the experiment with HL-60(TB) leukemia, 15.1 µM; in the experiment with SF-295 CNS, above 100 µM; in the experiment with SN12C renal, 52.3 µM; with DU-145 prostate it was 47.3 µM. Moreover, the TGI in the experiment with K-562 leukemia was above 100 µM; in the experiment with TK-10 renal, above 64.7 µM; in the experiment on LOX IMVI melanoma, above 48.7 µM; in the experiment with CAKI-1 renal it was 24.8 µM; in the experiment with U251 CNS it was above 100 µM.
For the compound `Cc1cc(C)nc(NS(=O)(=O)c2ccc(Nc3c4ccccc4nc4ccc(C(=O)Nc5ccc(S(=O)(=O)N=C(N)N)cc5)cc34)cc2)n1`, the TGI with CCRF-CEM leukemia, in the experiment on MALME-3M melanoma, in the experiment on HL-60(TB) leukemia, in the experiment on SF-295 CNS, in the experiment with SN12C renal and in the experiment with DU-145 prostate was above 100 µM each time. Besides, the TGI is 62.3 µM with K-562 leukemia; above 100 µM with TK-10 renal; 34.4 µM in the experiment with LOX IMVI melanoma; above 100 µM in the experiment on CAKI-1 renal; above 100 µM in the experiment on U251 CNS.
Consider `C=CCN1C(=O)CC(=O)N(NC2=NNC3(C(=O)N2)c2ccccc2-c2ccccc23)C1=S`, for which the TGI in the experiment on CCRF-CEM leukemia was above 100 µM; with MALME-3M melanoma, above 100 µM; in the experiment with HL-60(TB) leukemia it was 66.2 µM; in the experiment on SF-295 CNS, above 100 µM; in the experiment with SN12C renal it was above 100 µM; in the experiment on DU-145 prostate, above 100 µM. Moreover, the TGI in the experiment with K-562 leukemia, in the experiment on TK-10 renal, in the experiment on LOX IMVI melanoma, in the experiment with CAKI-1 renal and in the experiment with U251 CNS was above 100 µM each time.
As for `O=C(O)CCC1NC(/C(=C/c2ccccc2O)NC(=O)c2ccccc2)OC1=O` (stereo not given), the TGI in the experiment on CCRF-CEM leukemia, in the experiment with MALME-3M melanoma, with HL-60(TB) leukemia, in the experiment on SF-295 CNS, in the experiment with SN12C renal and in the experiment on DU-145 prostate was above 100 µM throughout. Further, the TGI with K-562 leukemia, with TK-10 renal, in the experiment with LOX IMVI melanoma, in the experiment on CAKI-1 renal and with U251 CNS was above 100 µM each time.
In the case of `C#CCOC(=O)C(=[N+]=[N-])C(=O)CC(C)C`, the TGI in the experiment with CCRF-CEM leukemia, with MALME-3M melanoma, in the experiment with HL-60(TB) leukemia, in the experiment with SF-295 CNS, in the experiment with SN12C renal and in the experiment with DU-145 prostate was above 10 µM each time. Further, the TGI in the experiment with K-562 leukemia, in the experiment with TK-10 renal, in the experiment on LOX IMVI melanoma, with CAKI-1 renal and in the experiment with U251 CNS was above 10 µM in each case.
As for `COc1cccc(CCCNC(=O)Cc2ccccc2CO)c1`, the TGI with CCRF-CEM leukemia, in the experiment on MALME-3M melanoma, in the experiment with HL-60(TB) leukemia, in the experiment on SF-295 CNS, in the experiment with SN12C renal and in the experiment on DU-145 prostate was above 100 µM each time. In addition, the TGI in the experiment on K-562 leukemia, in the experiment with TK-10 renal, in the experiment on LOX IMVI melanoma, in the experiment on CAKI-1 renal and in the experiment with U251 CNS was above 100 µM each time.
As for `COc1ccc(N=Nc2c(N)nn3c(SC)c(C#N)c(N)nc23)cc1`, the TGI with CCRF-CEM leukemia is 4.84 µM; in the experiment on MALME-3M melanoma, 31.7 µM; with HL-60(TB) leukemia, 6.07 µM; in the experiment on SF-295 CNS, 39.5 µM; in the experiment on SN12C renal, 19.1 µM; in the experiment on DU-145 prostate, 19.3 µM. In addition, the TGI is 4.65 µM in the experiment on K-562 leukemia; 33.6 µM with TK-10 renal; 3.12 µM in the experiment with LOX IMVI melanoma; 23.5 µM in the experiment with CAKI-1 renal; 19.5 µM in the experiment with U251 CNS.
`CCOC(=O)c1cn(CC)c2ccc3c(c2c1=O)S(=O)(=O)C=C3`: the TGI in the experiment on CCRF-CEM leukemia, with MALME-3M melanoma, with HL-60(TB) leukemia, in the experiment with SF-295 CNS, in the experiment on SN12C renal and in the experiment on DU-145 prostate was above 100 µM each time. In addition, the TGI in the experiment with K-562 leukemia, in the experiment on TK-10 renal, in the experiment on LOX IMVI melanoma, in the experiment with CAKI-1 renal and in the experiment with U251 CNS was above 100 µM in each case.
In the case of `Cc1cc2c(cc1Cl)Sc1n[nH]c(=O)n1S2(=O)=O`, the TGI with CCRF-CEM leukemia, in the experiment on MALME-3M melanoma, in the experiment on HL-60(TB) leukemia, in the experiment on SF-295 CNS, with SN12C renal and in the experiment with DU-145 prostate was above 100 µM throughout. Also, the TGI in the experiment with K-562 leukemia, in the experiment with TK-10 renal, in the experiment with LOX IMVI melanoma, in the experiment with CAKI-1 renal and in the experiment with U251 CNS was above 100 µM each time.
Turning to `Cc1cc(C)n2c(nc3ccccc32)c1C#N`, the TGI in the experiment with CCRF-CEM leukemia, in the experiment on MALME-3M melanoma, with HL-60(TB) leukemia, with SF-295 CNS, with SN12C renal and in the experiment on DU-145 prostate was above 100 µM each time. In addition, the TGI in the experiment with K-562 leukemia, in the experiment on TK-10 renal, in the experiment with LOX IMVI melanoma, with CAKI-1 renal and in the experiment on U251 CNS was above 100 µM in each case.
As to `c1cc2c(cc1[C@@H]1OC[C@@H]3[C@H]1CO[C@H]3c1ccc3c(c1)OCO3)OCO2`, the TGI with CCRF-CEM leukemia, in the experiment on MALME-3M melanoma, in the experiment on HL-60(TB) leukemia, in the experiment on SF-295 CNS, with SN12C renal and with DU-145 prostate was above 100 µM throughout. Besides, the TGI in the experiment with K-562 leukemia is above 100 µM; with TK-10 renal, 93.8 µM; with LOX IMVI melanoma it was above 100 µM; in the experiment with CAKI-1 renal, above 100 µM; with U251 CNS, above 100 µM.

The values above are taken from PubChem BioAssay (NCI).
